Experimental data as given in patent US4950659A, “16,17-acetalsubstituted androstane-17β-carboxylic acid esters prossessing high binding affinity to the glucocorticosteroid receptor” (Aktiebolaget Draco, priority 1985, dated 1990).

Target: T1, glucocorticoid receptor (Rattus norvegicus, UniProt P06536)
T1 construct: The thymus was removed and put into ice-cold saline; from tissue; host or cells: thymus of male Sprague-Dawley rats, 20,000×g supernatant of homogenate
T1 sequence (P06536 1-795): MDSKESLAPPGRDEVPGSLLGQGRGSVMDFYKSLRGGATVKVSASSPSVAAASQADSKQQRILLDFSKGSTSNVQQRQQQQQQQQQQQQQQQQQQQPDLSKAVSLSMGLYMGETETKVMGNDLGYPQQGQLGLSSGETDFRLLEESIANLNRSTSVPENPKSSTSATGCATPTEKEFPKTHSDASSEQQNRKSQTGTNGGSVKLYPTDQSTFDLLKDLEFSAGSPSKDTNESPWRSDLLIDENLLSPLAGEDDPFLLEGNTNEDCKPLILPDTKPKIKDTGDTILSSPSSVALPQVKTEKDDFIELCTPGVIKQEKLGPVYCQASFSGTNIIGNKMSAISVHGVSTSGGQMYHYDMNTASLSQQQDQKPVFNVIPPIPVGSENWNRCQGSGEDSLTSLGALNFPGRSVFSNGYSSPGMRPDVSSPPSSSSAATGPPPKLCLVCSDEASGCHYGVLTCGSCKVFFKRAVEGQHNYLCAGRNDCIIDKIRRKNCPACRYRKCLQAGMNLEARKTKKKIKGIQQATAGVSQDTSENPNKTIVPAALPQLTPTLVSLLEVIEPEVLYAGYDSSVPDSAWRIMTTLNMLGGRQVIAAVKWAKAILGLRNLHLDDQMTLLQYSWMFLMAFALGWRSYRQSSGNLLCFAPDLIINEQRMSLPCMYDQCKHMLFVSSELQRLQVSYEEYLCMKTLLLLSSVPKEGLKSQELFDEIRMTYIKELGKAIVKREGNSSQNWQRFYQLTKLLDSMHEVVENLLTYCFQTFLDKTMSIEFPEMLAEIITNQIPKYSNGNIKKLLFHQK
Experiment: Relative binding affinity to the glucocorticoid receptor: competition with 3H-labelled dexamethasone in rat thymus 20,000×g supernatant
Settings: curves compared at the 50% specific binding level of [3H]dexamethasone, referenced to budesonide, assigned RBA = 1, about 24 h at 0° C.
Description: All steroids according to the present invention are physiologically active compounds. The affinity of the novel androstane-17β-carboxylic acid esters to the glucocorticoid receptor has been used as a model for determination of the anti-inflammatory potency.
Male Sprague-Dawley rats, one to two months of age, were used throughout the investigation. The thymus was removed and put into ice-cold saline. The tissue was homogenized in a Potter Elvehjem homogenizer in 10 ml of a buffer containing 20 mM Tris, pH 7.4, 10% (w/v) glycerol, 1 mM EDTA, 20 mM NaMoO4, 10 mM mercaptoethanol. The homogenate was centrifuged for 15 min at 20,000×g. Portions of the 20,000×g supernatant (230 μl) were incubated for about 24 h at 0° C. with 100 μl phenylmethylsulphonylfluoride (an esterase inhibitor, final conc. 0.5 mM). 20 μl unlabelled competitor and 50 μl ^3 H-labelled dexamethasone (final conc. […]). Bound and free steroid were separated by incubating the mixture with 60 μl 2.5% (w/v) charcoal and 0.25% (w/v) dextran T70 suspension in 20 mM Tris, pH 7.4, 1 mM EDTA, and 20 mM NaMoO4 for 10 min at 0° C. Following a centrifugation at 500×g for 10 min, 230 μl or the supernatant was counted in 10 ml Insta-Gel in a Packard scintillation spectrophotometer. The supernatants were incubated with (a) [^3 H]dexamethasone alone, (b) [^3 H]dexamethasone plus 1000 fold excess of unlabelled dexamethasone and (c) [^3 H]dexamethasone plus 0.03-300 fold "excess" of competitor. The nonspecific binding was determined when 1000 fold excess of unlabelled dexamethasone was added to [^3 H]-labelled dexamethasone.
The radioactivity bound to the receptor in the presence of competitor divided by the radioactivity bound to the receptor in the absence of competitor multiplied by 100 gives the percentage specific binding of labelled dexamethasone. For each concentration of a competitor the percentage specifically bound radioactivity is plotted against the log of concentration of competitor. The curves are compared at the 50% specific binding level and referenced to budesonide, which is assigned a relative binding affinity (RBA) of 1.

Structure (SMILES)	relative binding affinities (RBA) to the glucocorticoid receptor
CCC[C@@H]1O[C@@H]2C[C@H]3[C@@H]4C[C@H](F)C5=CC(=O)C=C[C@]5(C)[C@@]4(F)[C@@H](O)C[C@]3(C)[C@]2(C(=O)OCOC(=O)OCC)O1 [Example 64]	0.05
CCC[C@@H]1O[C@@H]2C[C@H]3[C@@H]4C[C@H](F)C5=CC(=O)C=C[C@]5(C)[C@@]4(F)[C@@H](O)C[C@]3(C)[C@]2(C(=O)OC(C)OC(=O)OCC)O1 (single isomer, unassigned) [Example 84]	1.03
CCC[C@@H]1O[C@@H]2C[C@H]3[C@@H]4CCC5=CC(=O)C=C[C@]5(C)[C@@]4(F)[C@@H](O)C[C@]3(C)[C@]2(C(=O)OC(C)OC(=O)OCC)O1 (single isomer, unassigned) [Example 69]	0.44
CC(C)OC(=O)OC(C)OC(=O)C12OC(C)(C)OC1CC1C3CC(F)C4=CC(=O)C=CC4(C)C3(F)C(O)CC12C (single isomer, unassigned) [Example 27, 1'-isopropoxycarbonyloxyethyl 6α,9α-difluoro-11β-hydroxy-16α,17α-[(1-methylethylidene)bis(oxy)]androsta-1,4-diene-3-one-17β-carboxylate]	0.50
CCOC(=O)OC(C)OC(=O)C12OC(C)(C)OC1CC1C3CC(F)C4=CC(=O)C=CC4(C)C3(F)C(O)CC12C (single isomer, unassigned) [Example 4 epimer B, 1'-Ethoxycarbonyloxyethyl 6α,9α-difluoro-11β-hydroxy-16α,17α-[(1-methylethylidene)bis(oxy)]androsta-1,4-diene-3-one-17β-carboxylate]	0.30
CCC[C@@H]1O[C@@H]2C[C@H]3[C@@H]4CCC5=CC(=O)C=C[C@]5(C)[C@@]4(F)[C@@H](O)C[C@]3(C)[C@]2(C(=O)OC(C)OC(C)=O)O1 (single isomer, unassigned) [Example 55]	0.20
CC(=O)OC(C)OC(=O)C12OC(C)(C)OC1CC1C3CC(F)C4=CC(=O)C=CC4(C)C3(F)C(O)CC12C (single isomer, unassigned) [Example 5 epimer B, 1'-Acetoxyethyl 6α,9α-difluoro-11β-hydroxy-16α,17α-[(1-methylethylidene)bis(oxy)]androsta-1,4-diene-3-one-17β-carboxylate]	0.17
CCOC(=O)OC(C)(C)OC(=O)C12OC(C)(C)OC1CC1C3CC(F)C4=CC(=O)C=CC4(C)C3(F)C(O)CC12C (stereo not shown) [Example 38]	0.04
CCC[C@@H]1O[C@@H]2C[C@H]3[C@@H]4C[C@H](F)C5=CC(=O)C=C[C@]5(C)[C@@]4(F)[C@@H](O)C[C@]3(C)[C@]2(C(=O)OC(C)OC(=O)OC(C)C)O1 (single isomer, unassigned) [Example 87]	0.63
CCC[C@@H]1O[C@@H]2C[C@H]3[C@@H]4CCC5=CC(=O)C=C[C@]5(C)[C@H]4[C@@H](O)C[C@]3(C)[C@]2(C(=O)OC(C)OC(=O)OCC)O1 (stereo partly shown) [Example 67]	0.04
